The test system of data set [1] is HEK-ACE2/HEK-ACE-xenografted mice. Briefly: Biodistribution in HEK-ACE2/HEK-ACE xenografted mice. The class given is in vivo, mouse. The procedure:
(§1) All applicable international, national, and/or institutional guidelines for the care and use of animals were followed. In particular, all animal experiments were carried out according to the guidelines of the Swiss Regulations for Animal Welfare. Preclinical studies have been ethically approved by the Cantonal Committee of Animal Experimentation and permitted by the responsible cantonal authorities (License N° 75743). Five-week-old female CD1/nude mice and female immunocompetent FVB mice were obtained from Charles River Laboratories (Sulzfeld, Germany) and fed with standard rodent chow ad libitum. CD1/nude were subcutaneously inoculated with HEK-ACE2 cells (6–8 × 10^6 cells in 100 µL PBS) on the right shoulder and approximately one week later with HEK-ACE (4 × 10^6 cells in 100 µL PBS) on the left shoulder. Imaging and biodistribution studies were performed 2–4 weeks later when the xenografts reached a size of 100–300 mm^3.
(§2) Biodistribution studies in xenograft-bearing mice were performed 2–4 weeks after cell inoculation. Mice were intravenously injected with [^67Ga]Ga-DOTA-DX600, [^67Ga]Ga-NODAGA-DX600, [^67Ga]Ga-HBED-CC-DX600 or [^67Ga]Ga-DOTA-BPP9a (3 MBq, 0.5 nmol, 100 µL) diluted in NaCl 0.9% containing 0.05% BSA. The mice were sacrificed 3 h after administration of the radiopeptides. Selected tissues and organs were collected, weighed and counted using a γ-counter. The results were listed as a percentage of the injected activity per gram of tissue mass (% IA/g), using counts of a defined volume of the original injection solution measured simultaneously, resulting in decay-corrected values. Statistical analysis was performed by applying a one‐way ANOVA test with a Tukey’s multiple comparisons post‐test (GraphPad Prism software, version 8.3.1).

Test in data set [2]: as above
Type of data set: in vivo, mouse. As to conditions: female, CD1/nude, mouse, iv, 0.5 nmol, total radioactivity, 3 h after i.v. injection, decay-corrected, n = 3. The procedure: as §1, §2

The subject of data set [3] is HEK-ACE2/HEK-ACE-xenografted mice. Briefly: SPECT/CT imaging and quantification of retained activity in HEK-ACE2/HEK-ACE xenografted mice. The class given is in vivo, mouse. As to conditions: SPECT/CT quantification, non-decay-corrected. On the procedure:
as §1
SPECT/CT imaging was performed using a four-head, multiplexing, multipinhole small-animal SPECT camera (NanoSPECT/CT™, Mediso Medical Imaging Systems, Budapest, Hungary). Each head was outfitted with a tungsten-based aperture of nine 1.4 mm-diameter pinholes and a thickness of 10 mm. CT scans of 7.5 min duration were followed by SPECT scans of ~ 50 min performed 1 h, 3 h and 24 h after injection of the respective radiopeptide (10 MBq, 0.5 nmol, 100 μL), diluted in NaCl 0.9% containing 0.05% BSA. During the scan, mice were anesthetized with a mixture of isoflurane and oxygen. The images were acquired using Nucline software (version 1.02, Mediso Ltd., Budapest, Hungary). The real-time CT reconstruction used a cone-beam-filtered backprojection. The reconstruction of SPECT data was performed with the HiSPECT software (version 1.4.3049, Scivis GmbH, Göttingen, Germany) using γ-energies of 93.20 keV (± 10%), 184.60 keV (± 10%) and 300.00 keV (± 10%) for gallium-67. All images were prepared using the VivoQuant post-processing software (version 3.0, inviCRO Imaging Services and Software, Boston, US). A Gauss post-reconstruction filter (full width at half maximum, 1 mm) was applied, and the scale of activity for gallium-67 was set as indicated on the SPECT/CT images. In order to estimate the wash-out of the DX600-based radiopeptides from the HEK-ACE2 xenografts and kidneys over time, the absolute amount of activity was determined in these tissues using the VivoQuant quantification tool. The accumulated activity (non-decay-corrected value in MBq) in the xenografts and kidneys, respectively, obtained at the 1 h p.i. timepoint was set as 100%. The percentage of activity retained in these tissues was determined at 3 h and 24 h p.i. based on the absolute activity determined at these timepoints.

The test system of the next data set is FVB mice. Briefly: In vivo stability in immunocompetent FVB mice (TLC of blood plasma, urine, kidneys). Set-up: species or system mouse. The conditions noted are these: 1 h p.i. On the procedure:
In order to investigate the stability of the radiopeptides, the ^67Ga-labeled DX600 peptides (20 MBq/nmol) were tested in immunocompetent FVB mice (10 MBq in 100 μL per mouse). Before sacrificing, blood was collected from each mouse 1 h after injection of the radiopeptides. After centrifugation, the blood plasma was analyzed using reversed phase TLC with citrate buffer (0.1 M, pH 5.5) as a mobile phase. The kidneys were collected and processed to investigate the presence of intact radiopeptides and potential metabolites using the same TLC system. The analysis of the chromatograms was performed as described for the in vitro plasma stability (Additional file 1).
Methods: Immunocompetent FVB mice were injected with the DX600-based radiopeptides (n=2). One hour later, urine was collected and blood was sampled from the retrobulbar vein followed by centrifugation (10 min, 200 rcf). A drop of urine and blood plasma was analyzed using the TLC method described for in vitro stability experiments above (reversed phase as stationary phase and citrate buffer pH 5.5 as mobile phase). The data were also confirmed using normal phase TLC. Kidneys of mice were collected, cut into small pieces, homogenized in 200 μL buffer solution (ice-cold methanol containing 0.025% NH4OH) and centrifuged (5 min, 2300 rcf, 4° C) as described by Boss et al.. An aliquot of the supernatant of each sample was developed using the same TLC method as for urine and blood plasma samples. The TLC plates were exposed to a phosphor screen which was afterwards read using a storage phosphor system (Cyclone Plus, PerkinElmer). The quantification of the signals was carried out using the OptiQuant software (version 5.0, Bright Instrument Co Ltd., PerkinElmer^TM). The obtained chromatograms were analyzed by determination of the peak area of the radiolabeled peptide, the released gallium-67 as well as degradation products of unknown structure. The quantity of the intact product was expressed as percentage of the sum of integrated peak areas of the entire chromatogram.

Structures are written as SMILES. Read-outs that look alike come from different tables or passages of the source. Positions of bridges follow the written chain, without caps; N, C: chain ends. Residues, ends and D or L forms follow the SMILES beside them. *: point of attachment. DOTA = O=C(O)CN1CCN(CC(=O)O)CCN(CC(=O)*)CCN(CC(=O)O)CC1

As for `CC(=O)N[C@@H](CCCCNC(=O)CN1CCN(CC(=O)O)CCN(CC(=O)O)CCN(CC(=O)O)CC1)C(=O)NCC(=O)N[C@@H](CC(=O)O)C(=O)N[C@@H](Cc1ccc(O)cc1)C(=O)N[C@@H](CO)C(=O)N[C@@H](Cc1c[nH]cn1)C(=O)N[C@H]1CSSC[C@@H](C(=O)N[C@H](C(=O)N[C@@H](Cc2ccc(O)cc2)C(=O)N2CCC[C@H]2C(=O)N[C@@H](CC(=O)O)C(=O)N2CCC[C@H]2C(=O)N[C@@H](CCC(=O)O)C(=O)NCC(=O)NCC(=O)NCC(N)=O)[C@@H](C)O)NC(=O)[C@H](CCCCN)NC(=O)[C@H](Cc2c[nH]c3ccccc23)NC(=O)[C@H](Cc2c[nH]c3ccccc23)NC(=O)[C@@H]2CCCN2C(=O)[C@H](Cc2ccc(O)cc2)NC(=O)[C@H](Cc2ccc(O)cc2)NC(=O)[C@H](CCCNC(=N)N)NC(=O)[C@H](CC(C)C)NC(=O)[C@@H]2CCCN2C(=O)[C@H](CO)NC1=O` [[^67Ga]Ga-DOTA-DX600, metal not drawn] (Ac-K(DOTA)GDYSHCSPLRYYPWWKCTYPDPEGGG-NH2; disulfide 7-18), in data set [1] (3 h after i.v. injection, decay-corrected, n = 3), the “Biodistribution: ACE xenograft (HEK-ACE)” value worked out at 0.32 ± 0.18 % IA/g. The HEK-ACE2 xenograft-to-kidney ratio in data set [1] (3 h after injection) was 0.45 ± 0.02. For the same molecule, the tissue uptake at 3 h in data set [2] (HEK-ACE2 xenograft, read-out: Biodistribution: ACE2 xenograft (HEK-ACE2)) is 10.7 ± 0.4 %ID/g; in data set [2] (HEK-ACE xenograft, read-out: Biodistribution: ACE xenograft (HEK-ACE)), less than 0.5 %ID/g; in data set [2] (blood, read-out: Biodistribution: blood) it was 0.06 ± 0.01 %ID/g; in data set [2] (bone, read-out: Biodistribution: bone), 0.06 ± 0.01 %ID/g; in data set [2] (heart, read-out: Biodistribution: heart) it was 0.04 ± 0.01 %ID/g; in data set [2] (intestines, read-out: Biodistribution: intestines), 0.09 ± 0.04 %ID/g. Moreover, the tissue uptake at 3 h in data set [2] (kidneys, read-out: Biodistribution: kidneys (renal retention)) is roughly 24 %ID/g; in data set [2] (liver, read-out: Biodistribution: liver), 0.22 ± 0.01 %ID/g; in data set [2] (lung, read-out: Biodistribution: lung), 0.14 ± 0.06 %ID/g; in data set [2] (muscle, read-out: Biodistribution: muscle), 0.02 %ID/g; in data set [2] (salivary glands, read-out: Biodistribution: salivary glands) it was 0.05 ± 0.01 %ID/g; in data set [2] (spleen, read-out: Biodistribution: spleen), 0.09 ± 0.01 %ID/g. In data set [2] (stomach, read-out: Biodistribution: stomach), the tissue uptake at 3 h worked out at 0.04 ± 0.01 %ID/g. In addition, the figures for the “Activity retained in the kidneys relative to the 1 h p.i.-timepoint” value in data set [3] (3 h p.i.) and in data set [3] (24 h p.i.) were ~ 85% and 35–45%, respectively. The “Release of gallium-67 from the chelator in blood plasma” value with FVB mice is recorded as 3.5 % of the total activity determined in the blood. Also, the “Radiometabolites in kidney homogenates” value with FVB mice (fraction of accumulated activity) is recorded as ~ 93%.

The record behind these values is publication PMC10113987, “A tool for nuclear imaging of the SARS-CoV-2 entry receptor: molecular model and preclinical development of ACE2-selective radiopeptides” (EJNMMI Research, 2023).
